Here are results for twelve molecules from the Kinase Knowledgebase extract (Sharma et al. 2016).

The IC50 is the concentration that inhibits the measured activity by half. Read a low IC50 as greater potency.

The experiment deals with CDK2 (human) (UniProt P24941). The experiment in a line: Enzyme Assay.
In the case of `N[C@H]1CC[C@H](Nc2nc(NCCc3ccncc3)c3ncn(C4CCCC4)c3n2)CC1`, the IC50 is 69 nM.
Then `CCCCNc1nc(N[C@H]2CC[C@H](N)CC2)nc2c1ncn2C1CCCC1`, with 23 nM.
Molecule `CCCCCCCCNc1nc(N[C@H]2CC[C@H](N)CC2)nc2c1ncn2C1CCCC1` had an IC50 of 360 nM.
The molecule `N[C@H]1CC[C@H](Nc2nc(NCc3cccs3)c3ncn(C4CCCC4)c3n2)CC1` returned an IC50 of 56 nM.
As to `N[C@H]1CC[C@H](Nc2nc(NCCCCc3ccccc3)c3ncn(C4CCCC4)c3n2)CC1`, the half-inhibitory concentration (IC50) turned out to be 59 nM.
`N[C@H]1CC[C@H](Nc2nc(NNCC(F)(F)F)c3ncn(C4CCCC4)c3n2)CC1` had an IC50 of 58 nM.
Turning to `N[C@H]1CC[C@H](Nc2nc(NCCCO)c3ncn(C4CCCC4)c3n2)CC1`, the concentration for half-maximal inhibition (IC50) was 18 nM.
`CCCCCNc1nc(N[C@H]2CC[C@H](N)CC2)nc2c1ncn2C1CCCC1` displayed an IC50 of 53 nM.
Molecule `N[C@H]1CC[C@H](Nc2nc(NCCCN3CCOCC3)c3ncn(C4CCCC4)c3n2)CC1` displayed an IC50 of 116 nM.
`CC(C)n1cnc2c(NCC3CC3)nc(N[C@H]3CC[C@H](N)CC3)nc21` came in with a half-inhibitory concentration (IC50) of 141 nM.
As to `CC(C)n1cnc2c(NCCCC(=O)c3ncc[nH]3)nc(N[C@H]3CC[C@H](N)CC3)nc21`, the IC50 amounted to 840 nM.
On to `CCNc1nc(N[C@H]2CC[C@H](N)CC2)nc2c1ncn2C1CCCC1`, for which the concentration for half-maximal inhibition (IC50) was found to be 13 nM.
